Laboratory results as given in patent publication US20230092890A1, “1, 3, 4-Oxadiazole derivative compounds as histone deacetylase 6 inhibitor, and the pharmaceutical composition comprising the same” (Chong Kun Dang Pharmaceutical Corp., priority 2019, published 2023).

Tests used:
HDAC1 = biological target: T1, HDAC1 (Homo sapiens, UniProt Q13547); experiment: HDAC enzyme activity inhibition (in vitro), HDAC1 Fluorimetric Drug Discovery Assay Kit; assay type: biochemical; conditions: samples at 100, 1000 and 10000 nM; 37° C. 60 minutes; fluorescence Ex 390, Em 460; read-out: HDAC1 IC50
T1 construct: purchased Enzolifesciences BML-AK511
T1 sequence (Q13547 whole entry): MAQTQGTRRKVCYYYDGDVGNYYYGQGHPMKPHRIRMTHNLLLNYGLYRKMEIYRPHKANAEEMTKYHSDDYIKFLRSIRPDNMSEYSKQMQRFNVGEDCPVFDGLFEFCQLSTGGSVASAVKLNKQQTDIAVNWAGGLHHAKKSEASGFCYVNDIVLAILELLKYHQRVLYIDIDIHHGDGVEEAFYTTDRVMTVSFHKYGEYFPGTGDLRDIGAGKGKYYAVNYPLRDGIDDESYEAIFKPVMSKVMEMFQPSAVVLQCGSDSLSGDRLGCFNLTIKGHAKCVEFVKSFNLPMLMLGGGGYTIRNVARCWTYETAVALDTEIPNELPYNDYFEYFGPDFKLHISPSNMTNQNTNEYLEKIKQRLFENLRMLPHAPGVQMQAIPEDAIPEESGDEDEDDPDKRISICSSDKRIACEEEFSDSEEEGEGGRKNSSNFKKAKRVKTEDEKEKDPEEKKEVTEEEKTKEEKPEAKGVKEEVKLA
In short: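 HDAC1 was tested at 100, 1000 and 10000 nM and recombinant human HDAC6 at 0.1, 1, 10, 100 and 1000 nM. Enzyme reactions ran 60 min at 37° C, then developer was added for 30 min at 37° C, and fluorescence (Ex 390, Em 460) was read.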

HDAC6 human recombinant = biological target: T2, HDAC6 human recombinant (Homo sapiens, UniProt Q9UBN7); experiment: HDAC enzyme activity inhibition (in vitro), HDAC6 assay; assay type: biochemical; conditions: samples at 0.1, 1, 10, 100 and 1000 nM; 37° C. 60 minutes; fluorescence Ex 390, Em 460; read-out: HDAC6 IC50
T2 construct: purchased Calbiochem 382180
T2 sequence (Q9UBN7 1-1215): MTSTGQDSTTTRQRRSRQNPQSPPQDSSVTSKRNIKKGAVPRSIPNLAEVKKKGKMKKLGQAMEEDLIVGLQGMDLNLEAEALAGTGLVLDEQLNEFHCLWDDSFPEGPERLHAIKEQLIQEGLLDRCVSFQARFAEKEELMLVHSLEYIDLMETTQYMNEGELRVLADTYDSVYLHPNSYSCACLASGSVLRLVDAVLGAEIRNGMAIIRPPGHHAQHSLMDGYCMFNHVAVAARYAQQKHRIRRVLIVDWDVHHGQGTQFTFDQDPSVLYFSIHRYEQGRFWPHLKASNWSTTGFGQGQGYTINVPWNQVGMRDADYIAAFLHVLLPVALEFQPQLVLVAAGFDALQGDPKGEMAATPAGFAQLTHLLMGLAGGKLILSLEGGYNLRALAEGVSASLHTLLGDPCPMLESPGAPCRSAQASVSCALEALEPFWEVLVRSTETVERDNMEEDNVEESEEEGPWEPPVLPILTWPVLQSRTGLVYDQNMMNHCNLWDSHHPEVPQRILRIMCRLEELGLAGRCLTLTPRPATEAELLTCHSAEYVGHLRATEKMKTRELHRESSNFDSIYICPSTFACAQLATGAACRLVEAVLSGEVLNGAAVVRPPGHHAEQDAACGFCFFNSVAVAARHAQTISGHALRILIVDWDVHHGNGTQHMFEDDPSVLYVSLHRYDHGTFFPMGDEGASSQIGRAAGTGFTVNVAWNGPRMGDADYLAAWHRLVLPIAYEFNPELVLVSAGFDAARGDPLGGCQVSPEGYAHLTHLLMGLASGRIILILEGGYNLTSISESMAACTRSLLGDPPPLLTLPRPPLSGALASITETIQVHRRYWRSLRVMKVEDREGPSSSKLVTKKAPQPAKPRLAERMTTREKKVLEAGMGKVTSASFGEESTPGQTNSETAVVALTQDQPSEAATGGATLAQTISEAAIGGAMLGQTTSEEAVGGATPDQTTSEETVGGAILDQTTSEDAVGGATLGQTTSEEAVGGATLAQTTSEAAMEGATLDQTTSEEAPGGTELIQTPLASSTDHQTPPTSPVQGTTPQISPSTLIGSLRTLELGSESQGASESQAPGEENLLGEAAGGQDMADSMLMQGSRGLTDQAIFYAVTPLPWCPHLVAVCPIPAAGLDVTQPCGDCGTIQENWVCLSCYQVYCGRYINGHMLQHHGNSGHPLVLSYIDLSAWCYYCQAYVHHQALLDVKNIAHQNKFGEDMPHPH
In short: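 HDAC6 human recombinant enzyme with fluorimetric substrate; […]. Reaction 60 min at 37° C, then developer 30 min at 37° C; fluorescence read at Ex 390/Em 460.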

An IC50 (HDAC1) of over 10000 nM and an IC50 (HDAC6 human recombinant) of 37 nM were found for `O=c1oc2cc(-c3cccnc3)ccc2n1Cc1ccc(-c2nnc(C(F)F)o2)cn1` [Compound 304, 3-((5-(5-(difluoromethyl)-1,3,4-oxadiazole-2-yl)pyridine-2-yl)methyl)-6-(pyridine-3-yl) benzo[d]oxazole-2(3H)-one] in this work.
An IC50 (HDAC1) of over 10000 nM and an IC50 (HDAC6 human recombinant) of 50 nM were found for `O=c1oc2cc(-c3ccncc3)ccc2n1Cc1ccc(-c2nnc(C(F)F)o2)cn1` [Compound 305, 3-((5-(5-(difluoromethyl)-1,3,4-oxadiazole-2-yl)pyridine-2-yl)methyl)-6-(pyridine-4-yl) benzo[d]oxazole-2(3H)-one] in this work.
An IC50 (HDAC1) of over 10000 nM and an IC50 (HDAC6 human recombinant) of 34 nM were found for `O=c1oc2cc(-c3cccc4[nH]ccc34)ccc2n1Cc1ccc(-c2nnc(C(F)F)o2)cn1` [Compound 306, 3-((5-(5-(difluoromethyl)-1,3,4-oxadiazole-2-yl)pyridine-2-yl)methyl)-6-(1H-indole-4-yl)benzo[d]oxazole-2(3H)-one] in this work.
An IC50 (HDAC1) of over 10000 nM and an IC50 (HDAC6 human recombinant) of 399 nM were found for `CC(C)(C)OC(=O)N1CCC(c2ccc3c(c2)oc(=O)n3Cc2ccc(-c3nnc(C(F)F)o3)cn2)CC1` [Compound 307, tert-butyl 4-(3-((5-(5-(difluoromethyl)-1,3,4-oxadiazole-2-yl)pyridine-2-yl)methyl)-2-oxo-2,3-dihydrobenzo[d]oxazole-6-yl)piperidine-1-carboxylate] in this work.
An IC50 (HDAC1) of over 10000 nM and an IC50 (HDAC6 human recombinant) of 456 nM were found for `O=c1oc2cc(C3CCNCC3)ccc2n1Cc1ccc(-c2nnc(C(F)F)o2)cn1` [Compound 308, 3-((5-(5-(difluoromethyl)-1,3,4-oxadiazole-2-yl)pyridine-2-yl)methyl)-6-(piperidine-4-yl)benzo[d]oxazole-2(3H)-one] in this work.
An IC50 (HDAC1) of over 10000 nM and an IC50 (HDAC6 human recombinant) of 53 nM were found for `CN1CCC(c2ccc3c(c2)oc(=O)n3Cc2ccc(-c3nnc(C(F)F)o3)cn2)CC1` [Compound 309, 3-((5-(5-(difluoromethyl)-1,3,4-oxadiazole-2-yl)pyridine-2-yl)methyl)-6-(1-methylpiperidine-4-yl)benzo[d]oxazole-2(3H)-one] in this work.
An IC50 (HDAC1) of over 10000 nM and an IC50 (HDAC6 human recombinant) of 6 nM were found for `O=c1n(Cc2ccc(-c3nnc(C(F)F)o3)cn2)c2cc(F)c(-c3cccc4[nH]ccc34)cc2n1C1CN(C2COC2)C1` [Compound 310, 1-((5-(5-(difluoromethyl)-1,3,4-oxadiazole-2-yl)pyridine-2-yl)methyl)-6-fluoro-5-(1H-indole-4-yl)-3-(1-(oxetan-3-yl)azetidine-3-yl)-1,3-dihydro-2H-benzo[d]imidazole-2-one] in this work.
An IC50 (HDAC1) of over 10000 nM and an IC50 (HDAC6 human recombinant) of 12 nM were found for `O=c1n(Cc2ccc(-c3nnc(C(F)F)o3)cn2)c2cc(F)c(-c3cccnc3)cc2n1C1CN(C2COC2)C1` [Compound 311, 1-((5-(5-(difluoromethyl)-1,3,4-oxadiazole-2-yl)pyridine-2-yl)methyl)-6-fluoro-3-(1-(oxetan-3-yl)azetidine-3-yl)-5-(pyridine-3-yl)-1,3-dihydro-2H-benzo[d]imidazole-2-one] in this work.
An IC50 (HDAC1) of over 10000 nM and an IC50 (HDAC6 human recombinant) of 6 nM were found for `O=c1n(Cc2ccc(-c3nnc(C(F)F)o3)cn2)c2cc(F)c(-c3cn[nH]c3)cc2n1C1CN(C2COC2)C1` [Compound 312, 1-((5-(5-(difluoromethyl)-1,3,4-oxadiazole-2-yl)pyridine-2-yl)methyl)-6-fluoro-3-(1-(oxetan-3-yl)azetidine-3-yl)-5-(1H-pyrazole-4-yl)-1,3-dihydro-2H-benzo[d]imidazole-2-one] in this work.
An IC50 (HDAC1) of over 10000 nM and an IC50 (HDAC6 human recombinant) of 165 nM were found for `CC(C)N1CCC(c2ccc3c(c2)oc(=O)n3Cc2ccc(-c3nnc(C(F)F)o3)cn2)CC1` [Compound 313, 3-((5-(5-(difluoromethyl)-1,3,4-oxadiazole-2-yl)pyridine-2-yl)methyl)-6-(1-isopropylpiperidine-4-yl)benzo[d]oxazole-2(3H)-one] in this work.
An IC50 (HDAC1) of over 10000 nM and an IC50 (HDAC6 human recombinant) of 112 nM were found for `O=c1oc2cc(C3CCN(C4COC4)CC3)ccc2n1Cc1ccc(-c2nnc(C(F)F)o2)cn1` [Compound 314, 3-((5-(5-(difluoromethyl)-1,3,4-oxadiazole-2-yl)pyridine-2-yl)methyl)-6-(1-(oxetan-3-yl)piperidine-4-yl)benzo[d]oxazole-2(3H)-one] in this work.
An IC50 (HDAC1) of over 10000 nM and an IC50 (HDAC6 human recombinant) of 118 nM were found for `O=c1oc2cc(C3CCN(C4CCC4)CC3)ccc2n1Cc1ccc(-c2nnc(C(F)F)o2)cn1` [Compound 315, 6-(1-cyclobutylpiperidine-4-yl)-3-((5-(5-(difluoromethyl)-1,3,4-oxadiazole-2-yl)pyridine-2-yl)methyl)benzo[d]oxazole-2(3H)-one] in this work.
An IC50 (HDAC1) of over 10000 nM and an IC50 (HDAC6 human recombinant) of 91 nM were found for `CC(C)(C)OC(=O)N1CCN(c2cc3oc(=O)n(Cc4ccc(-c5nnc(C(F)F)o5)cn4)c3cc2F)CC1` [Compound 316, tert-butyl 4-(3-((5-(5-(difluoromethyl)-1,3,4-oxadiazole-2-yl)pyridine-2-yl)methyl)-5-fluoro-2-oxo-2,3-dihydrobenzo[d]oxazole-6-yl)piperazine-1-carboxylate] in this work.
An IC50 (HDAC1) of over 10000 nM and an IC50 (HDAC6 human recombinant) of 15 nM were found for `CN1CCN(c2cc3oc(=O)n(Cc4ccc(-c5nnc(C(F)F)o5)cn4)c3cc2F)CC1` [Compound 317, 3-((5-(5-(difluoromethyl)-1,3,4-oxadiazole-2-yl)pyridine-2-yl)methyl)-5-fluoro-6-(4-methylpiperazine-1-yl)benzo[d]oxazole-2(3H)-one] in this work.
An IC50 (HDAC1) of over 10000 nM and an IC50 (HDAC6 human recombinant) of 56 nM were found for `O=c1oc2cc(N3CCN(C4COC4)CC3)c(F)cc2n1Cc1ccc(-c2nnc(C(F)F)o2)cn1` [Compound 318, 3-((5-(5-(difluoromethyl)-1,3,4-oxadiazole-2-yl)pyridine-2-yl)methyl)-5-fluoro-6-(4-(oxetan-3-yl)piperazine-1-yl)benzo[d]oxazole-2(3H)-one] in this work.
An IC50 (HDAC1) of over 10000 nM and an IC50 (HDAC6 human recombinant) of 39 nM were found for `CN1CCN(c2cc3c(cc2F)n(Cc2ccc(-c4nnc(C(F)F)o4)cn2)c(=O)n3C2COC2)CC1` [Compound 319, 1-((5-(5-(difluoromethyl)-1,3,4-oxadiazole-2-yl)pyridine-2-yl)methyl)-6-fluoro-5-(4-methylpiperazine-1-yl)-3-(oxetan-3-yl)-1,3-dihydro-2H-benzo[d]imidazole-2-one] in this work.
An IC50 (HDAC1) of over 10000 nM and an IC50 (HDAC6 human recombinant) of 41 nM were found for `O=c1n(Cc2ccc(-c3nnc(C(F)F)o3)cn2)c2cc(F)c(N3CCN(C4CCC4)CC3)cc2n1C1COC1` [Compound 320, 5-(4-cyclobutylpiperazine-1-yl)-1-((5-(5-(difluoromethyl)-1,3,4-oxadiazole-2-yl)pyridine-2-yl)methyl)-6-fluoro-3-(oxetan-3-yl)-1,3-dihydro-2H-benzo[d]imidazole-2-one] in this work.
An IC50 (HDAC1) of over 10000 nM and an IC50 (HDAC6 human recombinant) of 53 nM were found for `O=c1n(Cc2ccc(-c3nnc(C(F)F)o3)cn2)c2cc(F)c(N3CCN(C4COC4)CC3)cc2n1C1COC1` [Compound 321, 1-((5-(5-(difluoromethyl)-1,3,4-oxadiazole-2-yl)pyridine-2-yl)methyl)-6-fluoro-3-(oxetan-3-yl)-5-(4-(oxetan-3-yl)piperazine-1-yl)-1,3-dihydro-2H-benzo[d]imidazole-2-one] in this work.
An IC50 (HDAC1) of over 10000 nM and an IC50 (HDAC6 human recombinant) of 29 nM were found for `O=c1n(Cc2ccc(-c3nnc(C(F)F)o3)cn2)c2cc(F)c(N3CCN(Cc4cccc5[nH]ccc45)CC3)cc2n1C1COC1` [Compound 322, 5-(4-((1H-indole-4-yl)methyl)piperazine-1-yl)-1-((5-(5-(difluoromethyl)-1,3,4-oxadiazole-2-yl)pyridine-2-yl)methyl)-6-fluoro-3-(oxetan-3-yl)-1,3-dihydro-2H-benzo[d]imidazole-2-one] in this work.
